Measured values taken from ChEMBL document CHEMBL3351832, “Design and synthesis of lactam-thiophene carboxylic acids as potent hepatitis C virus polymerase inhibitors” (Bioorg Med Chem Lett, 2014).

Experiments:
Hepatitis C virus [1] = test: Antiviral activity against Hepatitis C virus genotype 1b by cell-based replicon assay; type: functional, Hepacivirus hominis
[2] = Inhibition of purified Hepatitis C virus NS5B; design: species or system Hepacivirus hominis
[3] = target: T1, Nuclear receptor subfamily 1 group I member 2 (Homo sapiens, UniProt O75469); test: Activation of PXR (unknown origin) at 10 uM by reporter gene assay relative to rifampicin; type: ADME
T1 sequence (O75469 whole entry): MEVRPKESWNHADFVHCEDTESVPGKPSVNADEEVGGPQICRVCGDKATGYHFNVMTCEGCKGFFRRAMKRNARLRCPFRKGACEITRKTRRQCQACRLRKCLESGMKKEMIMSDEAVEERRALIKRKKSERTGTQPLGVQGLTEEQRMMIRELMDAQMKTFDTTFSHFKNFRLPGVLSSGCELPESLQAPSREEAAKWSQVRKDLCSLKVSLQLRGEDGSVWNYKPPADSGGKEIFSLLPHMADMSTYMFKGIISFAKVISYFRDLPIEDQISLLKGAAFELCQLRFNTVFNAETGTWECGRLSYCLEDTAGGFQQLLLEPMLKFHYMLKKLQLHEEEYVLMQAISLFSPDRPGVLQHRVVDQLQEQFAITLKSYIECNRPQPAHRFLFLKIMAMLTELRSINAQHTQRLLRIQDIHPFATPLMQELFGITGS

Cytochrome P450 3A4 = Cytochrome P450 3A4 (Homo sapiens, UniProt P08684); test: Increase in CYP3A4-mediated testosterone metabolism in human hepatocytes at 10 uM relative to rifampicin; type: ADME, cell-based, Hepatocyte
Cytochrome P450 3A4, sequence (P08684 whole entry): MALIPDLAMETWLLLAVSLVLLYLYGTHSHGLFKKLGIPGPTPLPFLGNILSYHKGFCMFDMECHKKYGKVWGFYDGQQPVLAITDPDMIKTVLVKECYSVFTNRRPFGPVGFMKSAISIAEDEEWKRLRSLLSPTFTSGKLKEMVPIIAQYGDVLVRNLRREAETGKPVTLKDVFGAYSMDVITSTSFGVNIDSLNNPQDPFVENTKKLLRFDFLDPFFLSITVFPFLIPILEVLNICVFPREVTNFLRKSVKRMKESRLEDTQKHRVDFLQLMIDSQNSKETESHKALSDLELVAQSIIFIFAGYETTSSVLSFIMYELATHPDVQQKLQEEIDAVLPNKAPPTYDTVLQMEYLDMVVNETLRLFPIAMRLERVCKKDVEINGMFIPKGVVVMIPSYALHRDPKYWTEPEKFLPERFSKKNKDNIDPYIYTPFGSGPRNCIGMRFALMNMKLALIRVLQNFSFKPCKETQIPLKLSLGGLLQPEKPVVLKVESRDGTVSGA

Hepatocyte = test: Increase in CYP3A4 mRNA expression in human hepatocytes at 10 uM relative to rifampicin; type: ADME, cell-based
[4] = Clearance in Sprague-Dawley rat at 1 mg/kg, iv; type: ADME, organism-based; design: dose 1 mg/kg, route intravenous; conditions: in vivo
[5] = Oral bioavailability in Sprague-Dawley rat at 5 mg/kg; type: ADME, organism-based; conditions: in vivo
[6] = Half life in Sprague-Dawley rat at 1 mg/kg, iv; type: ADME, organism-based; design: dose 1 mg/kg, route intravenous; conditions: in vivo
[7] = AUC in beagle dog at 0.3 mg/kg, iv; type: ADME, organism-based, Canis lupus familiaris; design: dose 0.3 mg/kg, route intravenous; conditions: plasma
[8] = Oral bioavailability in beagle dog at 3 mg/kg; type: ADME, organism-based, Canis lupus familiaris; conditions: in vivo
Hepatitis C virus [9] = test: Antiviral activity against Hepatitis C virus genotype 1a by cell-based replicon assay; conditions: subtype 1a
[10] = AUC in Sprague-Dawley rat at 5 mg/kg, po; type: ADME, organism-based; design: dose 5 mg/kg, route oral; conditions: plasma
[11] = Volume of distribution at steady state in Sprague-Dawley rat at 1 mg/kg, iv; type: ADME, organism-based; design: dose 1 mg/kg, route intravenous; conditions: in vivo, read-out: Vdss
[12] = AUC in beagle dog at 3 mg/kg, po; type: ADME, organism-based, Canis lupus familiaris; design: dose 3 mg/kg, route oral; conditions: plasma
[13] = Volume of distribution at steady state in beagle dog at 0.3 mg/kg, iv; type: ADME, organism-based, Canis lupus familiaris; design: dose 0.3 mg/kg, route intravenous; conditions: in vivo, read-out: Vdss
[14] = Half life in beagle dog at 0.3 mg/kg, iv; type: ADME, organism-based, Canis lupus familiaris; design: dose 0.3 mg/kg, route intravenous; conditions: in vivo
Hepatitis C virus [15] = test: Antiviral activity against Hepatitis C virus genotype 1b by cell-based replicon assay in presence of 40 % human serum
[16] = AUC in Sprague-Dawley rat at 1 mg/kg, iv; type: ADME, organism-based; design: dose 1 mg/kg, route intravenous; conditions: plasma
[17] = Clearance in beagle dog at 0.3 mg/kg, iv; type: ADME, organism-based, Canis lupus familiaris; design: dose 0.3 mg/kg, route intravenous; conditions: in vivo

EC50 (Hepatitis C virus [1]) [nM] | IC50 [2] [nM] | Activity [3] [%] | SMILES | also measured
17 | 3 | 87 | CC(C)(C)C#Cc1cc(N2C(=O)COC[C@H]2C2CCCCC2)c(C(=O)O)s1 | Activity (Cytochrome P450 3A4): 61%; Activity (Hepatocyte): 66%
> 33000 | > 10000 |  | O=C(O)c1sc(-c2ccccc2)cc1N1C(=O)CC[C@@H]1C1CCCCC1 | 
640 | 180 |  | O=C(O)c1sc(-c2ccccc2)cc1N1C(=O)CCC1C1CCCCC1 (configuration not stated) | 
3 | 2 | 77 | CC(C)(C)C#Cc1cc(N2C(=O)[C@@](C)(CCO)OC[C@H]2C2CCCCC2)c(C(=O)O)s1 (relative stereo) | 
8 | 3 | 9 | C[C@@H](O)C[C@H]1OC[C@@H](C2CCCCC2)N(c2cc(C#CC(C)(C)C)sc2C(=O)O)C1=O | clearance [4]: 14 mL/min/kg; bioavailability [5]: 77%; half-life [6]: 5.2 h; AUC [7]: 1.45 µM·h; bioavailability [8]: 43%; EC50 (Hepatitis C virus [9]): 11 nM; AUC [10]: 10.6 µM·h; Vd [11]: 3 L/kg; AUC [12]: 6.3 µM·h; Activity (Cytochrome P450 3A4): 2%; Vd [13]: 0.7 L/kg; half-life [14]: 5 h; EC50 (Hepatitis C virus [15]): 44 nM; AUC [16]: 2.76 µM·h; clearance [17]: 7.7 mL/min/kg
390 | 120 |  | O=C(O)c1sc(-c2ccccc2)cc1N1C(=O)CC[C@H]1C1CCCCC1 | 
11600 | 740 |  | C[C@H]1CC[C@H](C2CCCC(=O)N2c2cc(-c3ccccc3)sc2C(=O)O)CC1 (some centres not stated) | 
14 | 2 | 5 | CC(C)(C)C#Cc1cc(N2C(=O)[C@@H](CCCO)OC[C@H]2C2CCCCC2)c(C(=O)O)s1 (relative stereo) | clearance [4]: 38 mL/min/kg; bioavailability [5]: 43%; half-life [6]: 1.1 h; AUC [7]: 2.34 µM·h; bioavailability [8]: 12%; AUC [10]: 2.11 µM·h; Vd [11]: 1.2 L/kg; AUC [12]: 2.92 µM·h; Activity (Cytochrome P450 3A4): 2%; Vd [13]: 0.1 L/kg; half-life [14]: 2.4 h; AUC [16]: 0.984 µM·h; clearance [17]: 5.4 mL/min/kg
83 | 35 |  | CC(C)(C)C#Cc1cc(N2C(=O)[C@H](CCCO)OC[C@H]2C2CCCCC2)c(C(=O)O)s1 | 
270 | 60 |  | CC(C)N(c1cc(-c2ccccc2)sc1C(=O)O)C(=O)[C@H]1CC[C@H](C)CC1 | 
5800 | 870 |  | O=C(O)c1sc(-c2ccccc2)cc1N1C(=O)CCCC1c1ccccc1 (configuration not stated) | 
> 33000 | 10500 |  | Cc1ccc(C2CCCCC2)n1-c1cc(-c2ccccc2)sc1C(=O)O | 
66 | 12 |  | CC(C)(C)C#Cc1cc(N2C(=O)[C@H](CCO)OC[C@H]2C2CCCCC2)c(C(=O)O)s1 (relative stereo) | 
3700 | 720 |  | O=C(O)c1sc(-c2ccccc2)cc1N1C(=O)CCCC1C1CCCC1 (configuration not stated) | 
330 | 73 |  | O=C(O)c1sc(-c2ccccc2)cc1N1C(=O)CCCC1C1CCCCC1 (configuration not stated) | 
25 | 4 | 8 | CC(C)(C)C#Cc1cc(N2C(=O)[C@](C)(CCCO)OC[C@H]2C2CCCCC2)c(C(=O)O)s1 (relative stereo) | 
20 | 6 | 29 | CC(C)(C)C#Cc1cc(N2C(=O)[C@](C)(CCO)OC[C@H]2C2CCCCC2)c(C(=O)O)s1 (relative stereo) | 
5 | 2 | 145 | CC(C)(C)C#Cc1cc(N2C(=O)C(C)(C)OC[C@H]2C2CCCCC2)c(C(=O)O)s1 | 
> 33000 | 1500 |  | Cc1ccc([C@H]2CC[C@H](C)CC2)n1-c1cc(-c2ccccc2)sc1C(=O)O | 
7 | 2 | 3 | CC(C)(C)C#Cc1cc(N2C(=O)[C@@H](CCO)OC[C@H]2C2CCCCC2)c(C(=O)O)s1 (relative stereo) | clearance [4]: 27 mL/min/kg; bioavailability [5]: 48%; half-life [6]: 2 h; AUC [7]: 2.08 µM·h; bioavailability [8]: 27%; AUC [10]: 3.37 µM·h; Vd [11]: 2.1 L/kg; AUC [12]: 5.68 µM·h; Activity (Cytochrome P450 3A4): 5%; Vd [13]: 0.3 L/kg; half-life [14]: 3.8 h; AUC [16]: 1.42 µM·h; clearance [17]: 5.6 mL/min/kg
30 | 2 | 4 | C[C@H](O)C[C@H]1OC[C@@H](C2CCCCC2)N(c2cc(C#CC(C)(C)C)sc2C(=O)O)C1=O | 
> 33000 | > 10000 |  | O=C(O)c1sc(-c2ccccc2)cc1N1C(=O)CCCC1C1CCOCC1 (configuration not stated) | 
11 | 2 | 34 | CC(C)(C)C#Cc1cc(N2C(=O)[C@@](C)(CCCO)OC[C@H]2C2CCCCC2)c(C(=O)O)s1 (relative stereo) | 
12 | 10 | 141 | CC(C)(C)C#Cc1cc(N2C(=O)CCC[C@H]2C2CCCCC2)c(C(=O)O)s1 | 
